Test results: ChEMBL document CHEMBL1201862, “PubChem BioAssay data set” (2004)
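All cell lines were grown in 96-well plates and treated with compound for 48 hours. GI50 is the concentration that inhibits growth by half.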 Active and inactive are the calls of the source. Cut-off read from the data, not from the text of the source: active = GI50 up to about 1.1 µM and inactive = higher.

What was measured:
Experiment in all cases: NCI-60 cell line screen, 48 h
A549 = tested on: A549
SNB-19 = tested on: SNB-19
SW-620 = tested on: SW-620
OVCAR-5 = tested on: OVCAR-5
MOLT-4 = tested on: MOLT-4
NCI-H522 = tested on: NCI-H522
SR = tested on: SR
CCRF-CEM = tested on: CCRF-CEM
HOP-62 = tested on: HOP-62
COLO 205 = tested on: COLO 205
M14 = tested on: M14
NCI-H460 = tested on: NCI-H460
SK-OV-3 = tested on: SK-OV-3
A498 = tested on: A498
CAKI-1 = tested on: CAKI-1
UO-31 = tested on: UO-31
MDA-MB-231 = tested on: MDA-MB-231
HCT-116 = tested on: HCT-116
SF-539 = tested on: SF-539
ACHN = tested on: ACHN

Measured: GI50

COC(=O)[C@@H]1c2c(oc3cc(CO)cc(O)c3c2=O)C=C[C@H]1O
inactive: A549 16.8 µM | SNB-19 17.7 µM | SW-620 3.11 µM | OVCAR-5 9.51 µM | MOLT-4 4.52 µM | NCI-H522 1.84 µM | SR 5.6 µM | CCRF-CEM 1.69 µM | HOP-62 17.9 µM | COLO 205 5.5 µM | M14 5.97 µM | NCI-H460 18.6 µM | SK-OV-3 20.5 µM | A498 7.26 µM | CAKI-1 8 µM | UO-31 3.78 µM | MDA-MB-231 14.1 µM | HCT-116 2.3 µM | SF-539 2.67 µM

N#CCN(Cc1ccccc1)[C@H]1CCC[C@]1(O)/C=C/c1ccc2c(c1)OCO2
inactive: A549 38.4 µM | SNB-19 25.2 µM | SW-620 20.8 µM | OVCAR-5 39.3 µM | MOLT-4 21.7 µM | NCI-H522 17 µM | SR 17.5 µM | CCRF-CEM 16.4 µM | HOP-62 26.3 µM | ACHN 42 µM | COLO 205 15.6 µM | M14 16.5 µM | NCI-H460 18.3 µM | SK-OV-3 46.6 µM | A498 37.2 µM | CAKI-1 36.1 µM | UO-31 27.2 µM | MDA-MB-231 21.4 µM | SF-539 41.1 µM

O[C@H]1[C@H]2[C@H](O)C[C@H](CCOCc3ccccc3)CN2C[C@H]1O
inactive: A549 > 100 µM | SNB-19 > 100 µM | SW-620 > 100 µM | OVCAR-5 > 100 µM | MOLT-4 > 100 µM | NCI-H522 > 100 µM | SR > 100 µM | CCRF-CEM > 100 µM | ACHN > 100 µM | COLO 205 > 100 µM | M14 > 100 µM | NCI-H460 > 100 µM | SK-OV-3 > 100 µM | A498 > 100 µM | CAKI-1 > 100 µM | UO-31 > 100 µM | MDA-MB-231 > 100 µM | HCT-116 > 100 µM | SF-539 > 100 µM

CC(=O)N1c2ccccc2C23CCN(C)CC4C(C)OCC(C4CC2=O)C13 (stereo unspecified)
inactive: A549 > 100 µM | SNB-19 > 100 µM | SW-620 > 100 µM | OVCAR-5 > 100 µM | MOLT-4 > 100 µM | NCI-H522 > 100 µM | SR > 100 µM | CCRF-CEM > 100 µM | ACHN > 100 µM | COLO 205 > 100 µM | M14 > 100 µM | NCI-H460 > 100 µM | SK-OV-3 > 100 µM | A498 > 100 µM | CAKI-1 > 100 µM | UO-31 > 100 µM | MDA-MB-231 > 100 µM | HCT-116 > 100 µM | SF-539 > 100 µM
